Format in all cases: cell-based, human
One experiment deals with NFκB. Nature of the experiment: Activated NFκB in VEGF-treated HUVECs, TransAM assay. The settings on record: for Mean OD 450 nm (NFκB): control 0.070, VEGF only 0.111. How it is done: Passage 5 HUVECs, human source lot number 8750 (obtained from ATCC), were grown to confluence in 25 cm^2 flasks in EGM-2 medium. The following additives were added to the flasks (total volume of 5 ml/flask) in EGM-2 medium containing 2% FCS, GA1000 (gentamycin), heparin and ascorbic acid (all from Cambrex): 1 μg/ml of the compound of formula II (Cpd II); 5 μg/ml Cpd II; 15 μg/ml of Cpd II; 15 μg/ml methylphenidate (MP); or 10 μM LY 294002. The flasks were incubated overnight at 37° C., 5% CO2 After this incubation, vascular endothelial growth factor (VEGF) (obtained from Sigma) was added to give a final concentration 10 ng/ml, and the flasks were incubated for an additional 30 minutes.
Then, the amount of NFκB was determined using a TransAM™ NFκB p65/NFκB p50 Transcription Factor Assay Kit and a Nuclear Extract Kit from Active Motif North America, Carlsbad, Calif., according to the manufacturer's instructions. Briefly, a nuclear extract of the cells was prepared using the Nuclear Extract Kit. Then, the nuclear extract was added to the wells of the 96-well plate of the TransAM™ kit. Oligonucleotide containing an NFκB consensus binding site was immobilized in the wells, and the activated NFκB contained in the nuclear extract was bound to the oligonucleotide. Then, an antibody directed against the NFκB p65 or p50 subunit was added, and the NFκB complex bound to the oligonucleotide was detected. A secondary antibody conjugated to horseradish peroxidase (HRP) was next added to provide a colorimetric readout that was quantified by spectrophotometry (measurement at 450 nm).

The subject of another experiment is IL-13. The experiment in a line: IL-13 release by PBL, ELISA. The settings on record: Dex 10 μM; for IL-13 release induced by PHA: donor GR467, 2 μg/ml PHA, 96 h, Cpd II 15 μg/ml, MP 15 μg/ml, FIG. 3. How it is done: (§1) After this incubation, PHA was added to give a final concentration of 2 μg/ml, and the cells were incubated for an additional 96 hours at 37° C., 5% CO2. All cultures were performed in triplicate. Cells were then removed by centrifugation at 1000 rpm for 10 minutes, and the culture medium collected.
(§2) Release of IL-13 and interferon gamma (IFNγ) into the culture medium was measured by ELISA. To perform the ELISA, matched pairs of antibodies against human IL-13 and IFNγ were purchased from Pierce Biotechnology and Biosource, respectively. ELISA strip well plates were coated with 10 μg/ml of antibody (in phosphate-buffered saline (PBS)) to IL-13 and 4 μg/ml of antibody to IFNγ (in PBS) overnight at room temperature. The plates were then blocked using a 4% BSA solution in PBS for one hour, followed by the addition of 50 μl of experimental culture medium per well in duplicate. The plates were incubated at room temperature for one hour and then washed using 50 mM Tris pH 8.0 with 0.1% Tween 20. Then, solutions of 400 ng/ml biotinylated second antibody to IL-13 and 500 ng/ml biotinylated second antibody to IFNγ were made in blocking buffer, and 100 μl were added per well. The plates were incubated for 1 hour and washed again. A 1:8000 dilution of Strepavidin HRP (Pierce Biotechnology) conjugate was made in blocking buffer, and 100 μl were added to the wells and incubation continued for 30 minutes. A final wash step was performed, after which 100 μl Pierce Biotechnology TMB substrate were added to each well. Color was developed for 30 minutes and stopped by adding 100 μl 0.18 N H2SO4. OD was determined using microplate reader with a 450 nm filter.
After this incubation, PHA was added to give a final concentration of 5 μg/ml, and the cells were incubated for an additional 72 hours at 37° C., 5% CO2. All cultures were performed in triplicate. Cells were then removed by centrifugation at 1000 rpm for 10 minutes.
The supernatants were collected, and the concentrations of IL-13 and tumor necrosis factor alpha (TNFα) in the supernatants were measured by ELISA. […]
A general note: In an ELISA, binding on a coated surface is turned into a signal by an enzyme label.

The next experiment relates to IL-8. Nature of the experiment: IL-8 release by TNFα-stimulated HUVECs, ELISA. The settings on record: for Mean IL-8: 18 hours, TNFα + water 35572; for IL-8 release stimulated by TNFα (in words): HUVECs, Cpd II 1-30 μg/ml, MP 15 μg/ml, Dex and LY 294002 10 μM. Here is the method:
Passage 4 HUVECs, human source lot number 8710 (obtained from ATCC), were put into the wells of a 24-well tissue culture plate at 5,000 cells/well in EGM-2 medium (obtained from Cambrex) and cultured for 72 hours at 37° C. and 5% CO2. […] After incubation for 1 hour at 37° C. and 5% CO2, TNFα (obtained from Pierce) was added to give a final concentration of 10 ng/ml, and the cells were incubated for an additional 18 hours at 37° C. and 5% CO2. After this incubation, the supernatants were collected, and the amount of IL-8 in the supernatants determined by ELISA as described in Example 4.

Another experiment relates to IFNγ. The experiment in a line: IFNγ release by PBL, ELISA. The settings on record: donor GR467, Cpd II 15 μg/ml, MP 15 μg/ml, Dex 10 μM, FIG. 4; for IFNγ release, cells stimulated with PHA: 2 μg/ml PHA, 96 h; for IFNγ release, unstimulated cells: no PHA. How it is done:
as §1, §2

The structures appear in SMILES notation.

For `COC(=O)C(c1ccc(-c2ccccc2)cc1)C1CCCCN1` (centres unmarked) [Cpd II], the “Mean OD 450 nm (NFκB)” value with NFκB (VEGF 10 ng/ml + 1 μg/ml) came out at 0.097 ± 0.013; with NFκB (VEGF 10 ng/ml + 5 μg/ml) it was 0.065 ± 0.010; in the experiment with NFκB (VEGF 10 ng/ml + 15 μg/ml), 0.060 ± 0.008. The “amount of activated NFκB (in words)” value in the experiment with NFκB (VEGF, 15 μg/ml and 5 μg/ml) is on record as “reduced the amount of activated NFκB back to basal levels”. Further, the “release of IL-13 from PHA-stimulated PBL” value in the experiment with IL-13 (donor GR191, 5 μg/ml PHA, 72 h, Cpd II 15 and 50 μg/ml, FIG. 6) is “significantly inhibited the release of IL-13”. In the experiment with IL-13, the “IL-13 release induced by PHA” value was “significantly inhibited IL-13 release induced by PHA”. The “Mean IL-8” value with IL-8 (10 ng/ml TNFα + 1 μg/ml) stood at 53657 ± 3935.18 pg/mL; in the experiment on IL-8 (10 ng/ml TNFα + 5 μg/ml), 34482 ± 2127.22 pg/mL; with IL-8 (10 ng/ml TNFα + 10 μg/ml) it was 22050 ± 727.27 pg/mL; in the experiment with IL-8 (10 ng/ml TNFα + 15 μg/ml) it was 20817 ± 674.63 pg/mL; with IL-8 (10 ng/ml TNFα + 30 μg/ml), 4829.8 ± 214.13 pg/mL. In addition, the “IL-8 release stimulated by TNFα (in words)” value in the experiment on IL-8 is given as “decreased IL-8 release stimulated by TNFα in a dose-dependent manner”. Besides, in the experiment on IFNγ, the “IFNγ release, cells stimulated with PHA” value is “significantly inhibited IFNγ release”. In addition, in the experiment on IFNγ, the “IFNγ release, unstimulated cells” value is reported as “significantly inhibited IFNγ release”.
For the molecule `COC(=O)C(c1ccccc1)C1CCCCN1` (centres unmarked) [methylphenidate], the “Mean OD 450 nm (NFκB)” value in the experiment with NFκB (VEGF 10 ng/ml + 15 μg/ml) was 0.093 ± 0.011. In the experiment on IL-13, the “IL-13 release induced by PHA” value was “increased the release of IL-13 by the PHA-stimulated cells”. Further, the “Mean IL-8” value in the experiment on IL-8 (10 ng/ml TNFα + 15 μg/ml) came to 30183 ± 3448.01 pg/mL. Besides, the “IL-8 release stimulated by TNFα (in words)” value in the experiment on IL-8 is listed as “slightly decreased IL-8 release”. In addition, in the experiment with IFNγ, the “IFNγ release, cells stimulated with PHA” value is “increased the release of IFNγ by the PHA-stimulated cells” and the “IFNγ release, unstimulated cells” value was “had some effect on the release of IFNγ by unstimulated cells”.

The values are drawn from patent publication US20060183773A1, “Uses of methylphenidate derivatives” (priority 2005, published 2006).
